For 2 compounds, IC50 results are on record in ChEMBL document CHEMBL1148266, “Synthesis and mitochondrial complex I inhibition of dihydroxy-cohibin A, non-THF annonaceous acetogenin analogue” (Bioorg Med Chem Lett, 2004).

The species named for this assay is Bos taurus. Put plainly: Inhibition concentration was evaluated in NADH oxidase assay using bovine heart submitochondrial particles. Type of assay: functional.

pIC50: −log10 of the molar value.

`CCCCCCCCCCCC[C@H](OCOC)[C@H](CC[C@@H](OCOC)[C@H](O)CCCCCCCCCCCCC1=C[C@H](C)OC1=O)OCOC`: the pIC50 is 5.39. Regarding `CCCCCCCCCCCC[C@H](O)[C@@H](O)CC[C@@H](O)[C@H](O)CCCCCCCCCCCCC1=C[C@H](C)OC1=O` [DIHYDROXY-COHIBIN A], the negative logarithm of the IC50 (pIC50) was 7.70.
